# Patent publication US20030139397A1, “Arthropodicidal carboxanilides” (priority 2002, published 2003)
# Test system: tobacco budworm (Heliothis virescens)
# Conditions: in vivo
# Procedure: See Index Table A for compound descriptions. The following abbreviations are used in the Index Table that follows: n is normal, i is iso, Pr […], and Ph is phenyl. The abbreviation “Ex.” stands for “Example” and is followed by a number indicating in which example the compound is prepared.
# Test units, each consisting of a H.I.S. (high impact styrene) tray with 16 cells were prepared. Wet filter paper and approximately 8 cm^2 of lima bean leaf were placed into twelve of the cells. A 0.5-cm layer of wheat germ diet was placed into the four remaining cells. Fifteen to twenty third-instar larvae of fall armyworm (Spodoptera frugiperda) were placed into a 230-mL (8-ounce) plastic cup. Solutions of each of the test compounds in 75:25 acetone-distilled water solvent were sprayed into the tray and cup. Spraying was accomplished by passing the tray and cup on a conveyer belt directly beneath a flat fan hydraulic nozzle which discharged the spray at a rate of 0.138 kilograms of active ingredient per hectare (about 0.13 pounds per acre) at 207 kPa (30 p.s.i.). The insects were transferred from the 230-mL cup to the H.I.S. tray (one insect per cell). The trays were covered and held at 27° C. and 50% relative humidity for 48 hours, after which time readings were taken on the twelve cells with lima bean leaves. The four remaining cells were read at 6-8 days for delayed toxicity.
# The test procedure of TEST A was repeated for determining efficacy against third-instar larvae of the tobacco budworm (Heliothis virescens) except that three 230-mL (8-ounce) plastic cups with wheat germ diet were used in place of the H.I.S. tray, with each cup pre-infected with five third-instar larvae.
row,Structure (SMILES),mortality levels
1,CCCC12Cc3cc(Cl)ccc3C1=NC(C(=O)Nc1ccc(OC(F)(F)F)cc1)=NN2C (stereo not drawn) [Compound 6],≥ 80%
2,CC(C)C12Cc3cc(Cl)ccc3C1=NC(C(=O)Nc1ccc(OC(F)(F)F)cc1)=NN2 (stereo not drawn) [Compound 15],≥ 80%
3,CCCC12Cc3cc(Cl)ccc3C1=NC(C(=O)Nc1ccc(C(F)(F)F)cc1)=NN2C (stereo not drawn) [Compound 5],≥ 80%
4,CC12Cc3cc(F)ccc3C1=NC(C(=O)Nc1ccc(OC(F)(F)F)cc1)=NN2 (stereo not drawn) [Compound 14],≥ 80%
5,CCCC12Cc3cc(C(F)(F)F)ccc3C1=NC(C(=O)Nc1ccc(OC(F)(F)F)cc1)=NN2C (stereo not drawn) [Compound 8],≥ 80%
6,CCCC12Cc3cc(Cl)ccc3C1=NC(C(=O)Nc1ccc(Br)cc1)=NN2 (stereo not drawn) [Compound 2],≥ 80%
7,CCCC12Cc3cc(C(F)(F)F)ccc3C1=NC(C(=O)Nc1ccc(C(F)(F)F)cc1)=NN2C (stereo not drawn) [Compound 7],≥ 80%
8,CN1N=C(C(=O)Nc2ccc(OC(F)(F)F)cc2)N=C2c3ccc(F)cc3CC21C (stereo not drawn) [Compound 17],≥ 80%
9,O=C(Nc1ccc(SC(F)(F)F)cc1)C1=NNC2(c3ccc(F)cc3)Cc3cc(F)ccc3C2=N1 (stereo not drawn) [Compound 22],≥ 80%
10,CN1N=C(C(=O)Nc2ccc(C(F)(F)F)cc2)N=C2c3ccc(C(F)(F)F)cc3CC21C (stereo not drawn) [Compound 9],≥ 80%
11,CCCC12Cc3cc(C(F)(F)F)ccc3C1=NC(C(=O)Nc1ccc(C(F)(F)F)cc1)=NN2C(C)=O (stereo not drawn) [Compound 11],≥ 80%
12,O=C(Nc1ccc(OC(F)(F)F)cc1)C1=NNC2(c3ccc(F)cc3)Cc3cc(F)ccc3C2=N1 (stereo not drawn) [Compound 13],≥ 80%
13,CN1N=C(C(=O)Nc2ccc(OC(F)(F)F)cc2)N=C2c3ccc(C(F)(F)F)cc3CC21C (stereo not drawn) [Compound 10],≥ 80%
14,CCCC12Cc3cc(Cl)ccc3C1=NC(C(=O)Nc1ccc(SC(F)(F)F)cc1)=NN2 (stereo not drawn) [Compound 20],≥ 80%
15,CN1N=C(C(=O)Nc2ccc(C(F)(F)F)cc2)N=C2c3ccc(F)cc3CC21C (stereo not drawn) [Compound 19],≥ 80%
16,CCCC12Cc3cc(C(F)(F)F)ccc3C1=NC(C(=O)Nc1ccc(OC(F)(F)F)cc1)=NN2C(C)=O (stereo not drawn) [Compound 12],≥ 80%
17,CCCC12Cc3cc(C(F)(F)F)ccc3C1=NC(C(=O)Nc1ccc(SC(F)(F)F)cc1)=NN2 (stereo not drawn) [Compound 21],≥ 80%
18,COC(=O)N1N=C(C(=O)Nc2ccc(OC(F)(F)F)cc2)N=C2c3ccc(F)cc3CC21c1ccc(F)cc1 (stereo not drawn) [Compound 16],≥ 80%
